Test results as given in patent publication US20250136595A1, “ACYLATED HETEROCYCLIC QUINAZOLINE DERIVATIVES AS INHIBITORS OF ERBB2” (Enliven Inc., priority 2022, published 2025).

Legend:
Ba/F3 ERBB2 YVMA = Ba/F3 ERBB2 YVMA (Homo sapiens, UniProt P04626, DUP772-775, cells depend on it); experiment: Cell viability assay (CellTiter Glo) in Ba/F3 cells engineered to express ERBB2 YVMA; type: cell-based, mouse; conditions: Ba/F3 cells expressing human ERBB2 YVMA mutant, 72 hours, % viability, read-out: Ba/F3 ERBB2 YVMA IC50
Sequence of Ba/F3 ERBB2 YVMA (P04626 with tags, fused parts or gaps DUP772-775): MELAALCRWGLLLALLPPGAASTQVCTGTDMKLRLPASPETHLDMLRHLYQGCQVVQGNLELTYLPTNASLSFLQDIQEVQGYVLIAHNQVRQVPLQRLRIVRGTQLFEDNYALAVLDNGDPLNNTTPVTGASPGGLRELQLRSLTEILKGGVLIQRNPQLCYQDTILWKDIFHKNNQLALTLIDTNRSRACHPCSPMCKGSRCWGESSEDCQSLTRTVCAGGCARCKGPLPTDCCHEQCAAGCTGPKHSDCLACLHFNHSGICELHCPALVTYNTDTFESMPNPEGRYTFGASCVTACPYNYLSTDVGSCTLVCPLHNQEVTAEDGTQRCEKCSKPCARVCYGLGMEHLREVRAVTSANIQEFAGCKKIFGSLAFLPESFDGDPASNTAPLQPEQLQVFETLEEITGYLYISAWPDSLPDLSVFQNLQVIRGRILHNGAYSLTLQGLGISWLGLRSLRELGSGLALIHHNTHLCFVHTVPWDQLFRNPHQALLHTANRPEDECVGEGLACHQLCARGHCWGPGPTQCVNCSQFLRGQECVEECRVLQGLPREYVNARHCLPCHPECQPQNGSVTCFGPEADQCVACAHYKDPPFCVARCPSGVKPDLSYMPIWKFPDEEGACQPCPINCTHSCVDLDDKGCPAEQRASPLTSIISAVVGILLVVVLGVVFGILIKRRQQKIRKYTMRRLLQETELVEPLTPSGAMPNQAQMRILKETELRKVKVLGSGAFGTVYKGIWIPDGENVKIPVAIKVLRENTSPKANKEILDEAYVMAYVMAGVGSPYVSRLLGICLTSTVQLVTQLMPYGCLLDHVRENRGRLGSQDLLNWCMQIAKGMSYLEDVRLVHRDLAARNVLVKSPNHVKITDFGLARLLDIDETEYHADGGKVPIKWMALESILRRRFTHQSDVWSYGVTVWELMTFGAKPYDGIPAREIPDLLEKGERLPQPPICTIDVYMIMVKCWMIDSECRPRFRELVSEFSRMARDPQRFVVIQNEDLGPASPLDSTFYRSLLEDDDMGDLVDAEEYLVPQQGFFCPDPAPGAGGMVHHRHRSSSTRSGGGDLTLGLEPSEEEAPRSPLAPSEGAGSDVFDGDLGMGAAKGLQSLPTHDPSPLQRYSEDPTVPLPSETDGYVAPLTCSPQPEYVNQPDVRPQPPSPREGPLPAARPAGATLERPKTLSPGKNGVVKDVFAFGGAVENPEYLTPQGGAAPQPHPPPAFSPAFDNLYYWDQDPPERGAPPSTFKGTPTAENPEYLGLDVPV
Method in brief: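 IL-3-independent mouse Ba/F3 line stably transduced with human ERBB2 YVMA, seeded at 3000 cells/well, exposed to serially diluted compound (≤0.1% DMSO) for 72 h at 37° C. ATP read by CellTiter Glo luminescence, normalised to DMSO and media-only controls; sigmoidal nonlinear regression fit.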

[1] = target: T1, phosphorylated ERBB2 (pERBB2) (Homo sapiens, UniProt P04626); experiment: Detection of phosphorylated ERBB2 (pERBB2) by ELISA in BT-474 cells; type: cell-based; conditions: four hour incubation with compound
T1 construct: endogenous in cells; host or cells: BT-474
T1 sequence (P04626 23-1255): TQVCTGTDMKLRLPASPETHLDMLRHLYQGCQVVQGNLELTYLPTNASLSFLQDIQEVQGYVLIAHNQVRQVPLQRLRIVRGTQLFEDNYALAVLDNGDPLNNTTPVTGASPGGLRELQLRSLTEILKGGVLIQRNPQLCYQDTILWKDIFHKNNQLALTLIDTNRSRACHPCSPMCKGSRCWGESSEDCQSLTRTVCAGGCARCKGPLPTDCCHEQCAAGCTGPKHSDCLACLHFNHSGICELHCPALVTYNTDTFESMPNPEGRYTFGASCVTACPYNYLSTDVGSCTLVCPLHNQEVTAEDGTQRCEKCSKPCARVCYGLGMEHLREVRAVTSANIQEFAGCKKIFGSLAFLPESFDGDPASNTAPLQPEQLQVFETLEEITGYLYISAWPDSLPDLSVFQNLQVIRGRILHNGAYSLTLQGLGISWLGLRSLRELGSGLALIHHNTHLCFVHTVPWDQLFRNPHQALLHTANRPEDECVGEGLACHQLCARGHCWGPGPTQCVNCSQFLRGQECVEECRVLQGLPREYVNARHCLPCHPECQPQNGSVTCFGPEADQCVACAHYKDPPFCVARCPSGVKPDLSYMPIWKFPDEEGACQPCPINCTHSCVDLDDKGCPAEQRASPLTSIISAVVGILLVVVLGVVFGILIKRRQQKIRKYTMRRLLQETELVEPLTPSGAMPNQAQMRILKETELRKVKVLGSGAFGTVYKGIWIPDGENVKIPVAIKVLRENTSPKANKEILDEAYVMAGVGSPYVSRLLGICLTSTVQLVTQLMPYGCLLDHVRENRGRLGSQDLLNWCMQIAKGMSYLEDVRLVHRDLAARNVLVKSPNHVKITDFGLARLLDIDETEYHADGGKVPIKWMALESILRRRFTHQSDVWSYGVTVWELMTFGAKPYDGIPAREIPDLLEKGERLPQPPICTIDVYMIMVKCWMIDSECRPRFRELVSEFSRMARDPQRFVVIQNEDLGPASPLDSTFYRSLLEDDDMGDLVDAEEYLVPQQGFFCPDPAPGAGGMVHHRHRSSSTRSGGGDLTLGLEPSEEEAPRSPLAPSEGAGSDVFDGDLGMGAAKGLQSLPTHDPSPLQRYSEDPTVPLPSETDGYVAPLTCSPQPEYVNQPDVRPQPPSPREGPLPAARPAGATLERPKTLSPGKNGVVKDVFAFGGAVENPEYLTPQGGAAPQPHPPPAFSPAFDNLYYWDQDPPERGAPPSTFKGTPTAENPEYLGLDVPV
Method in brief: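 BT-474 cells treated 4 h at 37 °C, 5% CO2 with four-fold dilutions (10 μM to 0.01 nM final). Lysates analysed by ELISA for pERBB2, TMB read at OD 450 nm. % relative activity normalised to no-cell (low) and 0.1% DMSO-treated (high) controls.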

[2] = target: T2, phosphorylated EGFR (pEGFR) (Homo sapiens, UniProt P00533); experiment: Detection of phosphorylated EGFR (pEGFR) in EGF-stimulated A431 cells (AlphaLISA); type: cell-based; conditions: A431 cells (10% FBS), 4 hours incubation, EGF 30 ng/mL for 10 minutes
T2 construct: performed to measure phosphorylated EGFR levels using A431 cells; endogenous in cells; host or cells: A431
T2 sequence (P00533 25-1210): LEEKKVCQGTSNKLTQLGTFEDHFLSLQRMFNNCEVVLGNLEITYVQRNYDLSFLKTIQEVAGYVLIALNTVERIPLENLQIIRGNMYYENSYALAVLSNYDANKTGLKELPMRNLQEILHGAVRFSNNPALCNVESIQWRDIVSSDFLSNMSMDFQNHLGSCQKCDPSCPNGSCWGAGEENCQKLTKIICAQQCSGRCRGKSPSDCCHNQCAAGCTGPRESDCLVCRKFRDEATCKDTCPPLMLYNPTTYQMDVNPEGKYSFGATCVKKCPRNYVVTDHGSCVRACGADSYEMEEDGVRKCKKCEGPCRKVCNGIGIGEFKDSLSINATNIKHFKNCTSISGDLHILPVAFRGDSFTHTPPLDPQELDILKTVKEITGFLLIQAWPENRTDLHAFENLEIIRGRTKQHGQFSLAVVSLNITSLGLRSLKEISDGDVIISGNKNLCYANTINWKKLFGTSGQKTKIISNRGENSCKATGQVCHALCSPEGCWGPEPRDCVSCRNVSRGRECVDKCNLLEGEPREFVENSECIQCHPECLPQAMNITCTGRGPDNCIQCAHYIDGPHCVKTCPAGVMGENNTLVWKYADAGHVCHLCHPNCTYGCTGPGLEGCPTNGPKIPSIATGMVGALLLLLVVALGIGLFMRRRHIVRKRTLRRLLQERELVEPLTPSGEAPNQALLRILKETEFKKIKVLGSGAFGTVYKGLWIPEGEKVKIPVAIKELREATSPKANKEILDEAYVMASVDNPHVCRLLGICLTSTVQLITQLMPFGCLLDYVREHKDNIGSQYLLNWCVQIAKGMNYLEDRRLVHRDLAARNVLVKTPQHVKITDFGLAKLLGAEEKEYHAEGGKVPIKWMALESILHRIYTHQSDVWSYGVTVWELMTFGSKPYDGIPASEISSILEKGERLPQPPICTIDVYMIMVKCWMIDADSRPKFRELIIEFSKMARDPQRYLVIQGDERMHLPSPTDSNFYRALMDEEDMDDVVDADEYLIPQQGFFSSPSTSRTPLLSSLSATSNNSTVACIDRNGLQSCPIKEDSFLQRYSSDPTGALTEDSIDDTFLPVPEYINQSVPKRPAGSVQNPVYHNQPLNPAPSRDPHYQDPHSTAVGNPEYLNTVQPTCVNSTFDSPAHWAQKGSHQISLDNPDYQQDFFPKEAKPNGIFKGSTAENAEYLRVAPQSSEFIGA
Method in brief: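 Cells in 10% FBS treated with compound 4 h at 37° C., then stimulated 10 min with 30 ng/mL EGF, lysed, and pEGFR measured by AlphaLISA. Inhibition normalized to DMSO and staurosporine controls; IC50 from four-parameter logistic fit.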

Compound | IC50 [1] [nM] | IC50 [2] [nM] | GI50 (Ba/F3 ERBB2 YVMA) [nM]
C=CC(=O)N1CCN(c2cc3c(Nc4ccc(Cc5ccc6c(c5)ncn6C)c(C)c4)ncnc3cn2)C[C@H]1C [Compound 97, (R)-1-(2-methyl-4-(4-((3-methyl-4-((1-methyl-1H-benzo[d]imidazol-5-yl)methyl)phenyl)amino)pyrido[3,4-d]pyrimidin-6-yl)piperazin-1-yl)prop-2-en-1-one] | 24.2 | 4950 | 52.4
C=CC(=O)N1CCN(c2ccc3ncnc(Nc4ccc(Oc5ccc6c(c5)ncn6C)c(C)c4)c3n2)C[C@@H]1C [Compound 47, 1-[(2S)-2-methyl-4-[4-({3-methyl-4-[(1-methyl-1,3-benzodiazol-5-yl)oxy]phenyl}amino)pyrido[3,2-d]pyrimidin-6-yl]piperazin-1-yl]prop-2-en-1-one] | 30 | 2440 | 14
C=CC(=O)N1CCN(c2ccc3ncnc(Nc4ccc(Oc5ccc6c(c5)ncn6C)c(C)c4)c3c2)[C@@H](C)C1 [Compound 89, 1-[(3S)-3-methyl-4-[4-({3-methyl-4-[(1-methyl-1,3-benzodiazol-5-yl)oxy]phenyl}amino)quinazolin-6-yl]piperazin-1-yl]prop-2-en-1-one] | 19 | 5380 | 152

Now from value to compound, other results behind:

IC50 [1] [nM] | IC50 [2] [nM] | Compound | GI50 (Ba/F3 ERBB2 YVMA) [nM]
14.8 | 1050 | C=CC(=O)N1CCN(c2ncc3ncnc(Nc4ccc(Oc5ccn6ncnc6c5)c(C)c4)c3n2)C[C@H]1C [Compound 56, 1-[(2R)-2-methyl-4-{8-[(3-methyl-4-{[1,2,4]triazolo[1,5-a]pyridin-7-yloxy}phenyl)amino]pyrimido[5,4-d][1,3]diazin-2-yl}piperazin-1-yl]prop-2-en-1-one] | 7.86
20.9 | 1670 | C=CC(=O)N1CCN(c2ccc3ncnc(Nc4ccc(Cc5ccn6ncnc6c5)c(C)c4)c3n2)C[C@H]1C [Compound 51, 1-[(2R)-2-methyl-4-{4-[(3-methyl-4-{[1,2,4]triazolo[1,5-a]pyridin-7-ylmethyl}phenyl)amino]pyrido[3,2-d]pyrimidin-6-yl}piperazin-1-yl]prop-2-en-1-one] | 5.71
25.2 | 530 | CC#CC(=O)N1CCN(c2ccc3ncnc(Nc4ccc(Oc5ccn6ncnc6c5)c(C)c4)c3n2)C[C@H]1C [Compound 23, 1-[(2R)-2-methyl-4-{4-[(3-methyl-4-{[1,2,4]triazolo[1,5-a]pyridin-7-yloxy}phenyl)amino]pyrido[3,2-d]pyrimidin-6-yl}piperazin-1-yl]but-2-yn-1-one] | 7.17
